Source: patent publication US20090280068A1, “POLYMORPH OF 8-HYDROXY-5-[(1R)-1-HYDROXY-2-[[(1R)-2-(4-METHOXYPHENYL)-1-METHYLETHYL]AMINO]ETHYL]-2(1H)-QUINOLINONE MONOHYDROCHLORIDE” (Chiesi Farmaceutici S.p.A., priority 2008, published 2009)

Assay: Stability studies: storage under different relative humidity conditions, checked by XRPD pattern
Type: physicochemical
Conditions: solid stored at 25° C., 1 week each at 40%, 60%, 80%, 30%, 0% and 40% RH
Method: The XRPD analyses were carried out on a PANanalytical X'pert Pro X-ray powder diffractometer using Cu Kα radiation. The instrument was equipped with a X'Celerator detector. A theta-two theta continuous scan from 2.5 degrees 2 theta to 40 degrees 2 theta was used. Each sample was prepared for analysis by placing it in a quartz sample holder. The XPRD patterns are reported in terms of degrees 2 theta (°2θ, accuracy ±0.1°), diffraction peak intensity (height, [cts]), full width at half maximum (FWHM, [°2θ]), interatomic spacing in angstroms (d-spacing, [Å]), and relative intensities (%). The relative intensity is recorded as the ratio of the peak intensity to that of the most intense peak.
In order to check its thermodynamic stability, CHF 4226 crystal form D was stored at room temperature under different relative humidity (RH) conditions: • 40% RH. and 25° C. for 1 week • 60% RH. and 25° C. for 1 week • 80% RH and 25° C. for 1 week • 60% RH and 25° C. for 1 week • 40% RH and 25° C. for 1 week • 30% RH and 25° C. for 1 week • 0% RH. and 25° C. for 1 week • 40% RH and 25° C. for 1 week The thermodynamic stability of all the samples was checked by recording their XPRD pattern.

Structure (SMILES): COc1ccc(C[C@@H](C)NC[C@H](O)c2ccc(O)c3[nH]c(=O)ccc23)cc1.Cl [CHF 4226 crystal form D, 8-hydroxy-5-[(1R)-1-hydroxy-2-[[(1R)-2-(4-methoxyphenyl)-1-methylethyl]amino]ethyl]-2(1H)-quinolinone monohydrochloride]
- thermodynamic stability (XPRD pattern after storage): stable features under all stability screening conditions
